Results on one compound are retold here after patent publication US20130065964A1, “PERITONEAL DIALYSIS SOLUTION” (UNIVERSIDAD DE CASTILLA LA MANCHA, priority 2010, published 2013).

The test system of one assay is peritoneum. In words: Chronic peritoneal dialysis in rats, peritoneal equilibrium test (PET). The conditions noted are these: rats dialysed daily for four weeks with PDF, aliskiren 0.1 or 1 mg/Kg, FIGS. 12 and 13. Format: in vivo, rat. As for the experimental part:
The rats were exposed daily for four weeks to carrier (saline serum), 1.5% PDF, 2.3% PDF or 4.5% PDF supplemented by carrier, 0.1 mg/Kg aliskiren or 1 mg/Kg aliskiren. The data are expressed as mean±SEM, n=6 rats per group. * p<0.05, compared to the group treated with carrier in the absence of aliskiren (carrier). # p<0.05, compared to their respective groups treated with PDFs in the absence of aliskiren. […] The rats were exposed daily for four weeks to carrier (saline serum), 1.5% PDF, 2.3% PDF or 4.5% PDF supplemented by carrier, 0.1 mg/Kg aliskiren or 1 mg/Kg aliskiren. The data is expressed as mean media±SEM, n=6 rats per group. * p<0.05, compared to the group treated with carrier in the absence of aliskiren (carrier). # p<0.05, compared to their respective groups treated with PDFs in the absence of aliskiren. […] Their body weight was measured at the start and end of the experimental period. […] The concentrations of creatinine and glucose in the serum and dialysate were measured using enzymatic methods. The peritoneal transport of solutes was calculated, on one hand, as the glucose concentration in the dialysate 2 hours after the PET relative to the initial glucose concentration in the PDF (D2/D0 glucose) and, on the other, as the dialysate/plasma creatinine concentration ratio (D2/P2 creatinine) 2 h after the PET. […]

For another assay, the system named is caspase-3. Put plainly: Caspase-3 activity (Z-DEVD-AFC fluorescence). Format: cell-based. As to conditions: rat PMCs, D-glucose 50 mM, 24 hours, aliskiren 10-100 μM, FIG. 7. Here is the method:
The cells were incubated in D-glucose at 50 mM for 24 hours in the presence or absence of aliskiren (10-100 μM), and caspase-3 activity was measured as described in Material and Methods. The data is expressed as mean±SEM, n=3. * p<0.05 compared to the control (C). # p<0.05 compared to untreated cells (control). # p<0.05, compared to cells treated with D-glucose in the presence of carrier (0).
Rat peritoneal mesothelial cells were isolated by enzymatic digestion in accordance with protocols described in Hjelle J T, Golinska B T, Waters D C, et al. Perit Dial Int 1989; 9: 341-7. Briefly, female rats weighing 200-400 g of the Spragle-Dawley strain were sacrificed pursuant to Royal Decree 1201/2005, of 10 Oct., on protection of animals used for experimental and other scientific purposes. […]
In order to determine caspase-3 activity (Posadas I, Vellecco V, Santos P, et al. Br J Pharmacol 2007; 150: 577-85), the rat mesothelial cells were seeded on 6-well plates until reaching a confluence of 80%. […] After incubation, the samples were centrifuged at 13,000 rpm for 15 minutes at 4° C. and the protein concentration in the supernatants was determined using the Bradford method, following the standard protocol. […] Fluorescence emission was determined on a spectrofluorimeter (Tecan, Austria) at an excitation wavelength of 400 nm and an emission wavelength of 505 nm.

`COCCCOc1cc(C[C@@H](C[C@H](N)[C@@H](O)C[C@H](C(=O)NCC(C)(C)C(N)=O)C(C)C)C(C)C)ccc1OC` [aliskiren]: the “peritoneal damage in vivo (D2/D0 glucose, D2/P2 creatinine)” value in the assay on peritoneum is reported as “reduced peritoneal damage”. Moreover, the activation of caspase entry in the assay with caspase-3 is reported as “prevented”.
